Data taken from ChEMBL document CHEMBL5113515, “The Discovery of GSK3640254, a Next-Generation Inhibitor of HIV-1 Maturation” (J Med Chem, 2022).
pEC50: −log10 of the molar value.

Assays:
[1] = test system: Human immunodeficiency virus 1; assay: Antiviral activity against HIV1 wild type NL (4 to 3) infected in human MT2 cells measured after 4 to 5 days by dual-luciferase reporter assay; assay type: functional, organism-based; conditions: Human immunodeficiency virus 1, MT2
[2] = test system: MT2; assay: Cytotoxicity in human MT2 cells assessed as reduction in cell viability; assay type: functional
[3] = test system: Human immunodeficiency virus 1; assay: Antiviral activity against HIV1 harbouring T332S/V362I/prR41G mutant infected in human MT2 cells measured after 4 to 5 days by dual-luciferase reporter assay; assay type: functional, organism-based; conditions: Human immunodeficiency virus 1, MT2
[4] = test system: Human immunodeficiency virus 1; assay: Antiviral activity against HIV1 wild type NL (4 to 3) infected in human MT2 cells measured after 4 to 5 days in presence of human serum by dual-luciferase reporter assay; assay type: functional, organism-based
[5] = test system: Human immunodeficiency virus 1; assay: Antiviral activity against HIV1 harbouring deltaV370/T371A mutant infected in human MT2 cells measured after 4 to 5 days by dual-luciferase reporter assay; assay type: functional, organism-based; conditions: Human immunodeficiency virus 1, MT2
[6] = test system: Human immunodeficiency virus 1; assay: Antiviral activity against HIV1 harbouring V362I/V370A mutant infected in human MT2 cells measured after 4 to 5 days by dual-luciferase reporter assay; assay type: functional, organism-based; conditions: Human immunodeficiency virus 1, MT2
[7] = AUC in rat at 5 mg/kg, po; assay type: ADME, organism-based; set-up: dose 5 mg/kg, route po; conditions: in vivo, read-out: AUC
[8] = Human immunodeficiency virus 1, MT2

Structure (SMILES)	pEC50 [1]	CC50 [2] [µM]	pEC50 [3]	pEC50 [4, 8]	pEC50 [5]	pEC50 [6]	AUC [7] [µM·h]	pEC50 ([4]; mt2)
C=C(C)[C@@H]1CC[C@]2(NCCN3CCS(=O)(=O)CC3)CC[C@]3(C)[C@H](CC[C@@H]4[C@@]5(C)CC=C(C6=CCC(OC(C)C)(C(=O)O)CC6)C(C)(C)[C@@H]5CC[C@]43C)[C@@H]12 (some centres not stated)	8.30	9.7	6.01	7.31				
C=C(C)[C@@H]1CC[C@]2(NCCN3CCS(=O)(=O)CC3)CC[C@]3(C)[C@H](CC[C@@H]4[C@@]5(C)CC=C(C6=CCC(CC)(C(=O)O)CC6)C(C)(C)[C@@H]5CC[C@]43C)[C@@H]12 (some centres not stated)	8.44	27.5	8.01	7.42				
C=C(C)[C@@H]1CC[C@]2(NCCN3CCS(=O)(=O)CC3)CC[C@]3(C)[C@H](CC[C@@H]4[C@@]5(C)CC=C(C6=CCC(C(=O)O)(c7ccccc7)CC6)C(C)(C)[C@@H]5CC[C@]43C)[C@@H]12 (some centres not stated)	8.11	13.5	7.51	7.82				
C=C(C)[C@@H]1CC[C@]2(NCCN3CCS(=O)(=O)CC3)CC[C@]3(C)[C@H](CC[C@@H]4[C@@]5(C)CC=C(C6=CCC(COCC)(C(=O)O)CC6)C(C)(C)[C@@H]5CC[C@]43C)[C@@H]12 (some centres not stated)	8.49	5.1	7.94	7.66				
C=C(C)[C@@H]1CC[C@]2(NCCN3CCS(=O)(=O)CC3)CC[C@]3(C)[C@H](CC[C@@H]4[C@@]5(C)CC=C(C6=CCC(CCO)(C(=O)O)CC6)C(C)(C)[C@@H]5CC[C@]43C)[C@@H]12 (some centres not stated)	8.34	12.7	7.80	7.07	8.28	8.35		
C=C(C)[C@@H]1CC[C@]2(NCCN3CCS(=O)(=O)CC3)CC[C@]3(C)[C@H](CC[C@@H]4[C@@]5(C)CC=C(C6=CCC(O)(C(=O)O)CC6)C(C)(C)[C@@H]5CC[C@]43C)[C@@H]12 (some centres not stated)	8.70	6.4	7.55	7.88	8.62	8.22		
C=C(C)[C@@H]1CC[C@]2(NCCN3CCS(=O)(=O)CC3)CC[C@]3(C)[C@H](CC[C@@H]4[C@@]5(C)CC=C(C6=CCC(C)(C(=O)O)CC6)C(C)(C)[C@@H]5CC[C@]43C)[C@@H]12 (some centres not stated)	8.82	13.1	8.32	7.92	8.01		5.86	
C=C(C)[C@@H]1CC[C@]2(NCCN3CCC(S(C)(=O)=O)CC3)CC[C@]3(C)[C@H](CC[C@@H]4[C@@]5(C)CC=C(C6=CCC(CO)(C(=O)O)CC6)C(C)(C)[C@@H]5CC[C@]43C)[C@@H]12 (some centres not stated)	8.96	9.47	8.34	7.90	9.00	8.92	2.37	
C=C(C)[C@@H]1CC[C@]2(NCCN3CCS(=O)(=O)CC3)CC[C@]3(C)[C@H](CC[C@@H]4[C@@]5(C)CC=C(C6=CCC(CC7CC7)(C(=O)O)CC6)C(C)(C)[C@@H]5CC[C@]43C)[C@@H]12 (some centres not stated)	8.35	16.2	7.27	7.31				
C=C(C)[C@@H]1CC[C@]2(NCCN3CCC(S(C)(=O)=O)CC3)CC[C@]3(C)[C@H](CC[C@@H]4[C@@]5(C)CC=C(C6=CCC(CF)(C(=O)O)CC6)C(C)(C)[C@@H]5CC[C@]43C)[C@@H]12 (some centres not stated)	8.77	12.4	8.18	7.96			14.7	
C=C(C)[C@@H]1CC[C@]2(NCCN3CCC(S(C)(=O)=O)CC3)CC[C@]3(C)[C@H](CC[C@@H]4[C@@]5(C)CC=C(C6=CC[C@@](CF)(C(=O)O)CC6)C(C)(C)[C@@H]5CC[C@]43C)[C@@H]12	8.72	13.4	8.10	7.74	8.24		19.1	
C=C(C)[C@@H]1CC[C@]2(NCCN3CCS(=O)(=O)CC3)CC[C@]3(C)[C@H](CC[C@@H]4[C@@]5(C)CC=C(C6=CCC(CF)(C(=O)O)CC6)C(C)(C)[C@@H]5CC[C@]43C)[C@@H]12 (single isomer, unassigned) [FIPRAVIRIMAT]	8.70	13.3	8.03		8.74		6.98	8.18
C=C(C)[C@@H]1CC[C@]2(NCCN3CCC(S(C)(=O)=O)CC3)CC[C@]3(C)[C@H](CC[C@@H]4[C@@]5(C)CC=C(C6=CC[C@@H](C(=O)O)CC6)C(C)(C)[C@@H]5CC[C@]43C)[C@@H]12		9.1	7.73	8.31			9.18	
C=C(C)[C@@H]1CC[C@]2(NCCN3CCS(=O)(=O)CC3)CC[C@]3(C)[C@H](CC[C@@H]4[C@@]5(C)CC=C(C6=CCC(CO)(C(=O)O)CC6)C(C)(C)[C@@H]5CC[C@]43C)[C@@H]12 (some centres not stated)	8.40	14.2	7.59	8.23	8.34	8.72		
